Measurements reported in publication PMC4013825 (Journal of biomolecular screening, 2014).

Key:
[1] = target: T1, SERCA2a (sarco/endoplasmic reticulum calcium ATPase) (Canis lupus, UniProt O46674); assay: live-cell intramolecular FRET lifetime dose-response; format: cell-based
[2] = target: T1, SERCA2a (sarco/endoplasmic reticulum calcium ATPase); assay: as above; format: cell-based; remark: listed apart in the source

T1 sequence (O46674 whole entry): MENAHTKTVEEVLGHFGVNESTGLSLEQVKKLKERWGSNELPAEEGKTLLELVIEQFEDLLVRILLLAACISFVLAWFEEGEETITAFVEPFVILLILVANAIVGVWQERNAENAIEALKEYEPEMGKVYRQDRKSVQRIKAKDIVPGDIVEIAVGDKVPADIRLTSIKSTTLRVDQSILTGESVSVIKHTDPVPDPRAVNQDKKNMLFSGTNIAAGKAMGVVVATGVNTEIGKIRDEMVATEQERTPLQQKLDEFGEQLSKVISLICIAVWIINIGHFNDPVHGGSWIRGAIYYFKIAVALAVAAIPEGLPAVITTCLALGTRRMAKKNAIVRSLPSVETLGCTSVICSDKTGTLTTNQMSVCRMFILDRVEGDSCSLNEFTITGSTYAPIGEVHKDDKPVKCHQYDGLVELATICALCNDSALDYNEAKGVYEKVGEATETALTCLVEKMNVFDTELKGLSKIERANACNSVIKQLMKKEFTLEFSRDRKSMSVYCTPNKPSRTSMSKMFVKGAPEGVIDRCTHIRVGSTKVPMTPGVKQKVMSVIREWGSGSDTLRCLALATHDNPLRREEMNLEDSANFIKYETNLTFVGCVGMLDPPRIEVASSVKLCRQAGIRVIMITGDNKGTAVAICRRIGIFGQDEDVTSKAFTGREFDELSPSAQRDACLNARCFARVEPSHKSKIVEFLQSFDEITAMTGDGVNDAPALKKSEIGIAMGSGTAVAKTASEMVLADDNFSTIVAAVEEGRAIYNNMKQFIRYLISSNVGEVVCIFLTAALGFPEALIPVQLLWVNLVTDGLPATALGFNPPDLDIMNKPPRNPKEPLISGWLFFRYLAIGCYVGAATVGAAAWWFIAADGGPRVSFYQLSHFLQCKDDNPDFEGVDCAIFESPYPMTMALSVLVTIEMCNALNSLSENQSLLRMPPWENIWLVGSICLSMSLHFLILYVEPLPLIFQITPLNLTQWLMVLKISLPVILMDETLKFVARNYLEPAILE

| SMILES | Kd [1] [nM] | live-cell intramolecular FRET lifetime dose-response; ATPase inhibition in pig c [2] [nM] |
| --- | --- | --- |
| CC(=O)C1=C(O)[C@@H]2[C@H]3c4c[nH]c5cccc(c45)C[C@H]3C(C)(C)N2C1=O [CPA, cyclopiazonic acid] | ~40 | – |
| C/C=C(/C)C(=O)O[C@H]1C(C)=C2[C@H]([C@@H]1OC(=O)CCCCCCC)[C@@](C)(OC(C)=O)C[C@H](OC(=O)CCC)[C@@]1(O)[C@H]2OC(=O)[C@@]1(C)O [TG, thapsigargin] | – | 7.5 |
